{"source": "patent US9585862B2", "about": "“Patch containing rivastigmine” (priority 2011, dated 2017)", "experiment": "Compatibility test of adhesives mixed with rivastigmine free base (appearance, miscibility, total impurity)", "format": "physicochemical", "from_the_text": "In order to adopt a suitable adhesive for preparing a rivastigmine patch, each of various adhesives was mixed with rivastigmine free base to confirm the appearance, miscibility and compatibility thereof.\nFor a compatibility test, ten adhesives were used as a candidate material, considering the kind of a polymer and functional group present in the composition of each adhesive, the presence of a crosslinker and a solvent present in the composition. Details of the ten adhesives are shown in Table 2, wherein each product listed under the column “Product name” is an adhesive sold under the respective listed trademark.\nSpecifically, adhesives containing an acryl- or acrylate-vinylate-based polymer and having no functional group or a hydroxyl or carboxyl group were used. Also, the presence of a crosslinker in the adhesives was evaluated as an important factor to show a compatibility difference. The appearance and miscibility of each adhesive are shown in Table 3, wherein each “Durotak” listed under the column “Ingredient” is a different adhesive sold under the respective trademark.\nFor example, in the case that the adhesive sold under the trademark DUROTAK 87-202A was used, the color changed to yellow, while in the cases that the adhesives sold under the trademarks DUROTAK 87-2852, 87-2516 and 87-2052 were used, the color changed to brown. The adhesives undergoing a significant color change were commonly confirmed to have a crosslinker.", "data": [{"smiles": "CCN(C)C(=O)Oc1cccc([C@H](C)N(C)C)c1", "note": "[Rivastigmine base, (S)-N-ethyl-3-[(1-dimethylamino)ethyl]-N-methyl-phenyl-carbamate]", "values": [{"measurement": "Miscibility 2 wks", "setting": "active ingredient with adhesive, 2 wks", "result": "◯"}, {"measurement": "Miscibility Initial", "setting": "active ingredient with adhesive, initial", "result": "◯"}, {"measurement": "Total impurity (% impurity) 2 wks", "setting": "rivastigmine base alone or mixed with adhesive, 2 wks", "result": 0.07, "unit": "%"}, {"measurement": "Total impurity (% impurity) Initial", "setting": "rivastigmine base alone or mixed with adhesive, initial", "result": 0.03, "unit": "%"}]}]}
